From US10975087B2, “Solid forms of tetrahydropyranyl amino-pyrrolopyrimidinone compounds” (ArQule, Inc., priority 2018, dated 2021)
Converted amounts (≈) assume the structure as drawn. Like-named read-outs stand apart in the source and are kept apart here.

Columns and labels:
Assay type in all cases: physicochemical
Competitive slurrying = settings: for Form (competitive slurrying result) / form observed after competitive slurrying (XRPD): ca. 48 hours; for Form (competitive slurrying result): XRPD; for form observed after competitive slurrying (XRPD): ambient and 50° C., acetone, ethanol, acetonitrile
Method: Approximately 5 mg of each form (Form 1 and Form 4, Form 1 and Form 8, and Form 4 and Form 8) was weighed and agitated at ambient and 50° C. in minimal acetone, ethanol, diisopropyl ether (DIPE) and acetonitrile. Approximately 8 drops of each solvent was added and the samples were then agitated for ca. 48 hours, before being analyzed by XRPD. Table 9 details the conditions.

[1] = Gravimetric vapor sorption (GVS); settings: for Post-GVS analysis (form): after exposure to elevated humidity; for XRPD post GVS: cell wraps: Remained | unchanged; for GVS (hygroscopicity): summary Table 11
Method: Approximately 10-20 mg of sample was placed into a mesh vapor sorption balance pan and loaded into an IGASorp Moisture Sorption Analyzer balance by Hiden Analytical. The sample was subjected to a ramping profile from 40-90% relative humidity (RH) at 10% increments, maintaining the sample at each step until a stable weight had been achieved (98% step completion). After completion of the sorption cycle, the sample was dried using the same procedure to 0% RH, and finally taken back to the starting point of 40% RH. Two cycles were performed. The weight change during the sorption/desorption cycles were plotted, allowing for the hygroscopic nature of the sample to be determined.

[2] = 7 day stability testing, open vials at 40° C./75% RH, ambient and 80° C.; settings: for Purity after 1 week (%) / area % purity and form changes after 1 week: open vials; for T = 0 purity (%): T = 0, before storage; for area % purity and form changes after 1 week: ambient, 40° C./75% RH and 80° C.; for Stability testing: cell wraps: No drop in purity or change in form
Aqueous solubility = settings: for Solubility (mg/mL): Water; for Form: XRPD of damp solid after slurrying in Water, AXRPD: Amorphous by XRPD, but limited material for analysis; for XRPD post aqueous solubility: amorphous: Form 1 from solubility screen, Form 8: Amorphous, limited material
Method: (§1) Aqueous and acetone solubility was carried out using 3-10 mg of material, depending on availability, and slurrying in 150-200 μL of acetone or 300 μL of deionized water. The samples were agitated at ambient temperature then filtered by centrifugation (0.22 μm nylon filter) after ca. 24 hours and the solids analyzed by XRPD as damp solids. The filtrates were analyzed by HPLC for concentration determination. The water solubility was too low for detection using the current analytical method.

Acetone solubility = settings: for Form: XRPD of damp solid after slurrying in Acetone, *Small amount of material analyzed; for Solubility / solid form after slurrying in acetone (XRPD) / solubility at 24 h: acetone; for Acetone solubility: residual solid: form of residual solid, amorphous input: Form 2 residual solid with additional peaks; for solubility at 24 h: organic solvent or mixture, thermodynamic from solid
Method: as §1

[3] = Thermodynamic solubility pH measurements; settings: for Solubility (mg/mL) / Solubility: 48 hours
Method: After 2 hours at 25° C., the pH of each slurry was measured and the pH was adjusted, where required. After 24 hours at 25° C., the pH of each slurry was measured and the pH was adjusted, where required. After 48 hours at 25° C., the slurries were separated by centrifugation. The solids were analyzed by XRPD, while the pH of the separated liquors were also measured.

[4] = Long term stability testing at 25° C./60% RH
Method: Long term stability testing was carried out for Form 1 at 25° C./60% RH. […] The water content was measured by KF analysis.

[5] = Accelerated stability testing at 40° C./75% RH for 6 months
Method: Accelerated stability testing was carried out for Form 1 at 40° C./75% RH for 6 months. […] The water content was measured by KF analysis.

[6] = ambient temperature, ca. 24 hours
[7] = deionized water, ambient temperature, ca. 24 hours
[8] = summary Table 11, HPLC of filtrate

O=C(c1ccc(Oc2ccccc2)cc1Cl)c1c[nH]c2ncnc(N[C@@H]3CC[C@@H](CO)OC3)c12 [1 and 4]
Form (competitive slurrying result) (Competitive slurrying; DIPE, 50° C.): Form 1
Form (competitive slurrying result) (Competitive slurrying; Ethanol, 50° C.): Form 1
Form (competitive slurrying result) (Competitive slurrying; Ethanol, Ambient): Form 1

O=C(c1ccc(Oc2ccccc2)cc1Cl)c1c[nH]c2ncnc(N[C@@H]3CC[C@@H](CO)OC3)c12 [1 and 8]
Form (competitive slurrying result) (Competitive slurrying; DIPE, 50° C.): Form 1
Form (competitive slurrying result) (Competitive slurrying; Ethanol, 50° C.): Form 1
Form (competitive slurrying result) (Competitive slurrying; Ethanol, Ambient): Form 1

O=C(c1ccc(Oc2ccccc2)cc1Cl)c1c[nH]c2ncnc(N[C@@H]3CC[C@@H](CO)OC3)c12 [Form 1 and Form 4]
form observed after competitive slurrying (XRPD) (Competitive slurrying; DIPE): Form 1 was the dominant form

O=C(c1ccc(Oc2ccccc2)cc1Cl)c1c[nH]c2ncnc(N[C@@H]3CC[C@@H](CO)OC3)c12 [Form 11, (2-chloro-4-phenoxyphenyl)(4-(((3R,6S)-6-(hydroxymethyl)tetrahydro-2H-pyran-3-yl)amino)-7H-pyrrolo[2,3-d]pyrimidin-5-yl)methanone]
hygroscopic nature by GVS [1]: non-hygroscopic

O=C(c1ccc(Oc2ccccc2)cc1Cl)c1c[nH]c2ncnc(N[C@@H]3CC[C@@H](CO)OC3)c12 [Form 4, (2-chloro-4-phenoxyphenyl)(4-(((3R,6S)-6-(hydroxymethyl)tetrahydro-2H-pyran-3-yl)amino)-7H-pyrrolo[2,3-d]pyrimidin-5-yl)methanone]
hygroscopic nature by GVS [1]: non-hygroscopic
Post-GVS analysis (form) [1]: remain Form 4
uptake by GVS ([1]; at 90% RH): 0.4%
XRPD post GVS [1]: Remained
GVS (hygroscopicity) [1]: 0.4% uptake
Purity after 1 week (%) ([2]; 40° C./75% RH): 98.9%
Purity after 1 week (%) ([2]; 80° C.): 98.9%
Purity after 1 week (%) ([2]; Ambient): 98.9%
T = 0 purity (%) [2]: 98.8%
area % purity and form changes after 1 week [2]: no decrease in area % purity or form changes
Stability testing [2]: No drop in purity
Solubility (mg/mL) (Aqueous solubility; [6]): API not detected
Form (Aqueous solubility): Form 4
XRPD post aqueous solubility (Aqueous solubility): Form 4
aqueous solubility (Aqueous solubility; [7]): not soluble
aqueous solubility (Aqueous solubility; [8]): API not detected
Form (Acetone solubility): Form 1
Solubility (Acetone solubility; [6]): 15.1 mg/mL (≈ 31.5 mM)
solid form after slurrying in acetone (XRPD) (Acetone solubility; [6]): converted to the Form 1 polymorph
Acetone solubility: residual solid (Acetone solubility): (Form 1 residual
Acetone solubility (Acetone solubility; summary Table 11): 15.1 mg/mL

O=C(c1ccc(Oc2ccccc2)cc1Cl)c1c[nH]c2ncnc(N[C@@H]3CC[C@@H](CO)OC3)c12 [Form 4 and Form 8]
form observed after competitive slurrying (XRPD) (Competitive slurrying; DIPE): Form 1 and Form 2 mixtures, pure Form 1, pure Form 4 and pure Form 2

O=C(c1ccc(Oc2ccccc2)cc1Cl)c1c[nH]c2ncnc(N[C@@H]3CC[C@@H](CO)OC3)c12 [Form 8, (2-chloro-4-phenoxyphenyl)(4-(((3R,6S)-6-(hydroxymethyl)tetrahydro-2H-pyran-3-yl)amino)-7H-pyrrolo[2,3-d]pyrimidin-5-yl)methanone]
hygroscopic nature by GVS [1]: non-hygroscopic
Post-GVS analysis (form) [1]: remain Form 8
uptake by GVS, first cycle ([1]; at 90% RH, first cycle): < 0.3%
uptake by GVS, second cycle ([1]; at 90% RH, second cycle): 0.8%
XRPD post GVS [1]: Remained
GVS (hygroscopicity) [1]: 0.8% uptake
Purity after 1 week (%) ([2]; 40° C./75% RH): 99.0%
Purity after 1 week (%) ([2]; 80° C.): 99.0%
Purity after 1 week (%) ([2]; Ambient): 99.0%
T = 0 purity (%) [2]: 99.0%
area % purity and form changes after 1 week [2]: no decrease in area % purity or form changes
Solubility (mg/mL) (Aqueous solubility; [6]): API not detected
Form (Aqueous solubility): AXRPD
XRPD post aqueous solubility (Aqueous solubility): Amorphous,
aqueous solubility (Aqueous solubility; [7]): not soluble
aqueous solubility (Aqueous solubility; [8]): API not detected
Form (Acetone solubility): Form 2*
solid form after slurrying in acetone (XRPD) (Acetone solubility; [6]): conversion to Form 2
solubility at 24 h (Acetone solubility; Acetone, ambient temperature, ca. 24 hours, read-out: Solubility): 11.5 mg/mL (≈ 24 mM)
Acetone solubility: residual solid (Acetone solubility): (Form 2 residual
Acetone solubility (Acetone solubility; summary Table 11): 11.5 mg/mL

O=C(c1ccc(Oc2ccccc2)cc1Cl)c1c[nH]c2ncnc(N[C@@H]3CC[C@@H](CO)OC3)c12.O=S(=O)(O)CCS(=O)(=O)O [Edisylate Pattern 1]
pH - 2 Hours at 25° C. ([3]; Input Solvent Water): 2.32
pH - 24 Hours at 25° C. ([3]; Input Solvent Water): 2.18
pH - 48 Hours at 25° C. ([3]; Input Solvent Water): 2.37
Solubility (mg/mL) ([3]; Input Solvent Water, 25° C.): <LOD
pH - 2 Hours at 25° C. ([3]; Input Solvent pH 1): 0.17
pH - 24 Hours at 25° C. ([3]; Input Solvent pH 1): 0.70
pH - 48 Hours at 25° C. ([3]; Input Solvent pH 1): 1.11
Solubility ([3]; Input Solvent pH 1, 25° C.): 0.7 mg/mL
pH - 2 Hours at 25° C. ([3]; Input Solvent pH 4.5): 4.40
pH - 24 Hours at 25° C. ([3]; Input Solvent pH 4.5): 4.29
pH - 48 Hours at 25° C. ([3]; Input Solvent pH 4.5): 4.22
Solubility (mg/mL) ([3]; Input Solvent pH 4.5, 25° C.): <LOD
pH - 2 Hours at 25° C. ([3]; Input Solvent pH 6.5): 6.44
pH - 24 Hours at 25° C. ([3]; Input Solvent pH 6.5): 6.03
pH - 48 Hours at 25° C. ([3]; Input Solvent pH 6.5): 5.68
Solubility ([3]; Input Solvent pH 6.5, 25° C.): <0.1 mg/mL

O=C(c1ccc(Oc2ccccc2)cc1Cl)c1c[nH]c2ncnc(N[C@@H]3CC[C@@H](CO)OC3)c12 [Form 1 and Form 8]
form observed after competitive slurrying (XRPD) (Competitive slurrying; DIPE): Form 1 was the dominant form

O=C(c1ccc(Oc2ccccc2)cc1Cl)c1c[nH]c2ncnc(N[C@@H]3CC[C@@H](CO)OC3)c12 [Form 1, (2-chloro-4-phenoxyphenyl)(4-(((3R,6S)-6-(hydroxymethyl)tetrahydro-2H-pyran-3-yl)amino)-7H-pyrrolo[2,3-d]pyrimidin-5-yl)methanone]
hygroscopic nature by GVS [1]: non-hygroscopic
Post-GVS analysis (form) [1]: remain Form 1
uptake by GVS ([1]; at 90% RH): < 0.2%
XRPD post GVS [1]: Remained
GVS (hygroscopicity) [1]: <0.2% uptake
Purity after 1 week (%) ([2]; 40° C./75% RH): 99.4%
Purity after 1 week (%) ([2]; 80° C.): 99.4%
Purity after 1 week (%) ([2]; Ambient): 99.3%
T = 0 purity (%) [2]: 99.3%
area % purity and form changes after 1 week [2]: no decrease in area % purity or form changes
Stability testing [2]: No drop in purity
area % purity and form changes, long term storage [4]: no decrease in area % purity or form changes
Chemical Purity (% AUC) ([4]; 0 months): 98.9 % AUC
Crystallinity (XRPD) ([4]; 0 months): Form 1
Water Content (KF) (%) ([4]; 0 months): 0.16%
Chemical Purity (% AUC) ([4]; 1 month): 98.8 % AUC
Water Content (KF) (%) ([4]; 1 month): 0.28%
Chemical Purity (% AUC) ([4]; 3 months): 98.8 % AUC
Water Content (KF) (%) ([4]; 3 months): 0.41%
Chemical Purity (% AUC) ([4]; 6 months): 98.9 % AUC
Crystallinity (XRPD) ([4]; 6 months): Form 1
Water Content (KF) (%) ([4]; 6 months): 0.47%
Chemical Purity (% AUC) ([4]; 9 months): 98.9 % AUC
Water Content (KF) (%) ([4]; 9 months): 0.29%
Chemical Purity (% AUC) ([4]; 12 months): 98.8 % AUC
Crystallinity (XRPD) ([4]; 12 months): Form 1
Water Content (KF) (%) ([4]; 12 months): 0.46%
Chemical Purity (% AUC) ([4]; 18 months): 99.0 % AUC
Water Content (KF) (%) ([4]; 18 months): 0.49%
Chemical Purity (% AUC) ([4]; 24 months): 98.9 % AUC
Crystallinity (XRPD) ([4]; 24 months): Form 1
Water Content (KF) (%) ([4]; 24 months): 0.37%
Chemical Purity (% Area) ([5]; 0 months): 98.9 % Area
Crystallinity (XRPD) ([5]; 0 months): Form 1
Water Content (KF) (%) ([5]; 0 months): 0.16%
Chemical Purity (% Area) ([5]; 1 month): 98.8 % Area
Water Content (KF) (%) ([5]; 1 month): 0.36%
Chemical Purity (% Area) ([5]; 3 months): 98.8 % Area
Water Content (KF) (%) ([5]; 3 months): 0.53%
Chemical Purity (% Area) ([5]; 6 months): 98.9 % Area
Crystallinity (XRPD) ([5]; 6 months): Form 1
Water Content (KF) (%) ([5]; 6 months): 0.57%
area % purity and form changes, accelerated storage ([5]; 6 months): no decrease in area % purity or form changes
Solubility (mg/mL) (Aqueous solubility; [6]): API not detected
Form (Aqueous solubility): Form 1
XRPD post aqueous solubility (Aqueous solubility): Form 1
aqueous solubility (Aqueous solubility; [7]): not soluble
aqueous solubility (Aqueous solubility; [8]): API not detected
Form (Acetone solubility): Form 2*
Solubility (Acetone solubility; [6]): 12.3 mg/mL (≈ 25.7 mM)
solid form after slurrying in acetone (XRPD) (Acetone solubility; [6]): conversion to Form 2
solubility at 24 h (Acetone solubility; summary Table 11, read-out: Acetone solubility): 12.3 mg/mL (≈ 25.7 mM)
Acetone solubility: residual solid (Acetone solubility): (Form 2 residual
relative stability of the form (Competitive slurrying; under the conditions assessed): thermodynamically more stable form

O=C(c1ccc(Oc2ccccc2)cc1Cl)c1c[nH]c2ncnc(N[C@@H]3CC[C@@H](CO)OC3)c12 [4 and 8]
Form (competitive slurrying result) (Competitive slurrying; DIPE, 50° C.): Form 4
Form (competitive slurrying result) (Competitive slurrying; Ethanol, 50° C.): Form 1
Form (competitive slurrying result) (Competitive slurrying; Ethanol, Ambient): Form 1
